Measurements from US11447533B2, “Antimicrobial and anticancer peptides and conjugates and compositions, methods, articles and kits relating thereto” (George Mason Research Foundation, Inc., priority 2018, dated 2022).

What was measured:
[1] = test system: E. coli ML35p inner membrane; test: Inner membrane disruption (β-galactosidase leakage, ONPG); assay type: cell-based, Escherichia coli
Method: Interactions with Bacterial Membranes. Interaction of the peptides with bacterial membranes in different phosphate buffers were evaluated using E. coli ML35p, constructed in our laboratory. At first, competent cells of E. coli ML35 were produced by conventional competent cell preparation method, then transformed with pBR322 plasmid. Transformed colonies were selected after growing on Luria-agar containing 50 μg/mL ampicillin. A single transformed colony was grown in presence of ampicillin first in Luria broth and then in MHBII and stored as 20% glycerol stock at −80° C. This frozen stock, on the day of the experiment, was thawed and grown in MHBII containing ampicillin up to OD600 nm=0.8-0.9, washed with PBS and then suspended in the respective buffer up to the required OD600 nm for use.
Membrane Disruptions. The outer and the inner membrane disruptions by the peptides were evaluated by incubating bacterial suspension with peptides and then measuring the activity of enzymes leaked out of the cells. 100 μL of 10× concentration of peptide in water was incubated with 900 μL bacterial suspension (OD600 nm˜0.1) in respective buffer for 3 hours at room temperature with gentle rotation. […]
The inner membrane disruption was tested by using the activity of β-galactosidase present in the […] of E. coli ML35p, which lacks lactose-permease. Peptides when disrupt the inner membrane enough to cause β-galactosidase to come out, the degree of disruption can be measured by the virtue of the kinetics of the enzyme and using a substrate called ortho-Nitrophenyl-β-galactoside (ONPG). β-galactosidase mediated hydrolyzed product of ONPG has an absorbance λmax=420 nm. Supernatant collected from the incubation of peptide with bacteria was added with ONPG solution in DPBS and incubated at 35° C. and continuous absorbance readings. The slope of the linear section of the absorbance curve (absorbance vs time), was used as a measure of membrane disruption and the % Disruption was calculated as: Equation 8: […]

B. cereus ATCC 11778 = test: Antimicrobial efficacy (resazurin virtual colony count); assay type: cell-based, Bacillus cereus; conditions: DPBS
Method: Antimicrobial Studies. The phosphate buffers used for antimicrobial assays were supplemented with non-nitrogenous energy source, 0.1% (w/v) glucose. To conduct antimicrobial assays, bacterial strains were first suspended in respective buffers. E. coli (ATCC 25922) and B. cereus (ATCC 11778) were grown in MHB II up to OD600 nm˜1 and stored as frozen stock in 20% glycerol at −80° C. Occasionally they were thawed and enumerated by serial dilution and spreading on MHB II agar plates. The concentrations of the frozen stocks of E. coli and B. cereus strains were 1.0-1.1*10^8 CFU/mL with OD600 nm˜0.8. In case of other bacterial strains, they were grown on the days of experiment up to OD600 nm˜1-1.5 and then adjusted to OD600 nm˜0.8. The growth media of the drug-resistant bacterial strains were supplemented with few of the respective antibiotics against which they are resistant. […]
Antimicrobial assays in different phosphate buffers and serum were conducted by adapting, with necessary modifications a fast high-throughput method based on Virtual Colony Count technique and later modified by incorporating the use of resazurin. At first serial dilution of a microbial strain in respective buffer was poured in the wells of 96 well polypropylene microplate and was then added with same volume of 2× MHB II supplemented with 80 μg/mL resazurin and incubated at 35° C. in a Gemini EM Microplate Reader (Molecular Devices) overnight with intermittent shaking. As the microbe grows it reduces non-fluorescent resazurin to fluorescent resorufin and the fluorescent intensity of each well were measured (excitation=570 nm, emission=590 nm) each 5 min for 15 hours. The time (t, min) to reach a certain fluorescence (RFU=20000 with respect to the starting fluorescence) was correlated with the initial bacterial concentration (in CFU/mL) in the particular well to obtain a calibration plot of the form: Log([Bacteria],CFU/mL)=b+m*t Equation 4: […]

Row | Sequence | inner membrane disruption relative to HCMAB ([1]; DPBS, HCMAB = 100%) | antimicrobial efficacy, in words (B. cereus ATCC 11778) | inner membrane disruption relative to HCMAB ([1]; 10 mM phosphate buffer)
1 | RRWKRFFKRWK (SEQ ID NO: 15) [ATRA1-R3W2] | highest degree of inner membrane disruption |  | 
2 | KRFKKFFKKLK (SEQ ID NO: 2) [ATRA1, first 11 residues of NA-CATH] | below 10% | somewhat effective | highest
3 | KRAKKFFKKLK (SEQ ID NO: 4) [ATRA1-A] |  | not effective | 
